Values after ≈ are worked out from the molar mass of the structure shown. Like-named read-outs stand apart in the source and are kept apart here.
How the values were obtained:
[1] = pKa of the ligands by UV–vis titration; assay type: physicochemical; settings: for pKa: 0.20 M KNO3, UV–vis, I = 0.20 M KNO3, 10 equiv. EDTA
Method: Physico-chemical properties such as aqueous solubility, lipophilicity, and the actual protonation state at a given pH are known to influence the pharmacokinetic behavior of a drug.
An Agilent Cary 8454 diode array spectrophotometer was utilized to obtain UV–vis spectra in the wavelength range 190–1100 nm. The path length (l) was 1 or 2 cm in most cases (the actual l is always indicated in the legends of the figures). The concentrations of the ligands and complexes were between 36 and 100 μM. The ligands were titrated in the presence of 10 equiv of EDTA. Individual samples contained 0–37 μM HSA, 0–206 μM MIM, 0–759 μM AHA, or 0–733 μM FHA. Spectra were always background and baseline corrected. The computer program HypSpec[64] was used to obtain stability constants.

[2] = n-octanol/water distribution coefficient (shake-flask); assay type: physicochemical; settings: pH 7.4
Method: The exchange of the coligand (H2O/Cl^–) changes the overall charge of the complex, thus affecting lipophilicity. […] The traditional shake-flask method was used to obtain distribution coefficients of the ligands as well as of the complexes in n-octanol/buffered aqueous solution (20 mM phosphate, pH = 7.4) at different chloride ion concentrations (4, 24, and 100 mM) using UV–vis spectrophotometry (Agilent Cary 8454 diode array spectrophotometer, Santa Clara, CA, USA) for the analysis. The compounds were dissolved in buffered aqueous solutions previously saturated with n-octanol. Then the aqueous and n-octanol phases were gently mixed in different volume ratios (using 1:60 for the ligands, 1:1 for the RhCp* and 1:2 for the RuCym complexes ratios of n-octanol to buffered aqueous solution volume) for 4 h, followed by phase separation. Then the UV–vis spectrum of the aqueous or n-octanol phase was recorded and compared to the reference spectrum. Stock solutions were made in the aqueous phase, and distribution coefficients (DpH) were calculated by the following equation: [drawing 3]

MES-SA/B1 = assay: Cytotoxicity in triple coculture, MES-SA/B1 mOrange; assay type: cell-based, human
Method: Cell lines were purchased from the American Type Culture Collection (ATCC). MES-SA/B1 is a human MDR1-transfected derivative of MES-SA, and MES-SA mCherry, MES-SA/B1 mOrange, and MES-SA/Dx5 eGFP were engineered to stably express the respective fluorescent proteins previously.[62] Cells were kept in culture medium (DMEM) supplemented with 10% fetal bovine serum, 2 mM L-glutamine, 100 units/mL penicillin, and 100 μg/mL streptomycin (Thermo Fisher). One week before use, MES-SA/Dx5 eGFP cells were treated with 0.5 μM doxorubicin to ensure ABCB1/P-gp expression.
The tested compounds were dissolved in 50% (v/v) DMSO/PBS’ buffer to prepare 5–10 mM stock solutions, which were diluted in complete culture medium. Constitutive expression of the fluorescent proteins allowed multiplexing in cytotoxicity experiments.[62] Cells were mixed before seeding in 384-well plates: in double cocultures, MES-SA mCherry and MES-SA/Dx5 eGFP cells were seeded at 1250–1250 cells/well (in total 2500 cells/well); while in triple cocultures, MES-SA mCherry, MES-SA/Dx5 eGFP and MES-SA/B1 mOrange cells were seeded at 800–800–800 cells/well (in total 2400 cells/well). Serial dilutions of the compounds were added 24 h after seeding. To address the effect of P-gp function, TQ was added at a nontoxic concentration (0.4 μM) 15 min before the test compounds. The intensity of the fluorescent proteins, which is proportional to cell mass, was measured after 144 h of incubation at the respective fluorescent channels (excitation/emission: eGFP: 485 nm/510 nm; mOrange: 545 nm/567 nm; mCherry: 585 nm/610 nm). pIC50 values were calculated by a custom program written by Judit Sessler in C#.[62] IC50 values and standard deviation were calculated from average pIC50 values from at least 3 independent measurements.

Colo320 = assay: Cytotoxicity, Colo320; assay type: cell-based, human; settings: this work
Source text: Supplementary Information
(11 pictures or pasted objects on this page, not shown here)

[3] = tested on: Escherichia coli (ATCC 25922); assay: Antibacterial MIC, E. coli; assay type: cell-based; settings: Mueller Hinton Broth, 37 °C, 18 h
Method: (§1) Escherichia coli (ATCC 25922) was used as Gram-negative strain and Staphylococcus aureus (ATCC 25923, methicillin-resistant (MRSA) ATCC 43300) strains were applied as Gram-positive bacterial cultures in the experiments. MIC values of the compounds were determined in 96-well plates based on the Clinical and Laboratory Standard Institute guidelines (CLSI guidelines).[76] The stock solutions of the compounds (same as those used for cytotoxicity experiments) were diluted in 100 μL of Mueller Hinton Broth. Then, 10^–4 dilution of an overnight bacterial culture in 100 μL of medium was added to each well, with the exception of the medium control wells.

[4] = tested on: Staphylococcus aureus (ATCC 25923); assay: Antibacterial MIC, S. aureus; assay type: cell-based; settings: Mueller Hinton Broth, 37 °C, 18 h
Method: as §1

[5] = tested on: methicillin-resistant S. aureus (MRSA) ATCC 43300; assay: Antibacterial MIC, MRSA; assay type: cell-based, Staphylococcus aureus; settings: Mueller Hinton Broth, 37 °C, 18 h
Method: as §1

MES-SA/Dx5 [6] = settings: monoculture, ref SI3, cited from earlier work
[7] = target: human serum albumin (HSA), Trp214 / site I (Homo sapiens, UniProt P02768); assay: HSA Trp214 fluorescence quenching
Method: (§2) Next, spectrofluorometric measurements were also performed to gain insight into the binding interactions that may occur in the hydrophobic binding sites of HSA. Tryptophan (Trp214) quenching experiments were conducted for the complexes (1–4) (for complex (3) see Figure S31) and their ligands). […] To monitor the binding at site II, site marker displacement experiments were performed using dansylglycine (DG).
(§3) Fluorescence measurements were carried out on a Fluoromax (Horiba Jobin Yvon, Longjumeau, France) spectrofluorometer using a 1 cm × 1 cm quartz cuvette. […] Excitation wavelengths were 295 nm for Trp-214 quenching and 340 nm for the DG displacement studies. The calculated conditional stability constants for HSA–complex species were obtained using the computer program HypSpec.[64] Calculations always were based on data obtained from at least two independent measurements.

[8] = target: human serum albumin (HSA), site II (Homo sapiens, UniProt P02768); assay: HSA dansylglycine (DG) site marker displacement
Method: as §2, §3

MES-SA = assay: Cytotoxicity in double coculture, MES-SA mCherry; settings: 144 h, read-out: IC50 MES-SA
Method: (§4) Therefore, the novel half-sandwich complexes (1–4) and their corresponding ligands were tested against a coculture of MES-SA and MES-SA/Dx5 cells expressing the fluorescent proteins mCherry or eGFP, respectively.[62]
(§5) The tested compounds were dissolved in 50% (v/v) DMSO/PBS’ buffer to prepare 5–10 mM stock solutions, which were diluted in complete culture medium. Constitutive expression of the fluorescent proteins allowed multiplexing in cytotoxicity experiments.[62] […] Serial dilutions of the compounds were added 24 h after seeding. To address the effect of P-gp function, TQ was added at a nontoxic concentration (0.4 μM) 15 min before the test compounds. […] IC50 values and standard deviation were calculated from average pIC50 values from at least 3 independent measurements.

MES-SA/Dx5 [9] = assay: Cytotoxicity in double coculture, MES-SA/Dx5 eGFP; settings: for IC50: read-out: IC50 MES-SA/Dx5; for SR = IC50 (MES-SA)/IC50 (MES-SA/Dx5): double coculture
Method: as §4, §5

Sequence of human serum albumin (HSA), Trp214 / site I (P02768 25-609): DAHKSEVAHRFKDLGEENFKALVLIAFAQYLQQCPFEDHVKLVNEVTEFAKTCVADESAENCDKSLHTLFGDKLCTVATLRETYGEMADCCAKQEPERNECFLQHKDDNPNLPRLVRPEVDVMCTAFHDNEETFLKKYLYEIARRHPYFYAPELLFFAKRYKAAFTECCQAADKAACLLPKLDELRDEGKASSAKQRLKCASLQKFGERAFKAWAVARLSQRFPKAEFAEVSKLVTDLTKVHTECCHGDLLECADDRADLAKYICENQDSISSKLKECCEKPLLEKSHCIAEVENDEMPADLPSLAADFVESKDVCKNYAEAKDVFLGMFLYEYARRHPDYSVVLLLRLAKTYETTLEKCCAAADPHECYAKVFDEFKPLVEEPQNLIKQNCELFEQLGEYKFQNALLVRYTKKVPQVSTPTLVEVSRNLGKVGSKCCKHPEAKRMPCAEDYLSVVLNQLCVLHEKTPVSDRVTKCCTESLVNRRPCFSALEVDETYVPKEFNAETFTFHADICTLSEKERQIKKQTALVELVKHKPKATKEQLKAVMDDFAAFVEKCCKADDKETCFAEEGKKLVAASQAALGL
Sequence of human serum albumin (HSA), site II (P02768 25-609): as above

Oc1c(CN2CCCCC2)cc(Cl)c2cccnc12 [HQCl-pip, 5-chloro-7-(piperidin-1-ylmethyl)quinolin-8-ol]
pKa ([1]; read-out: pKa (Npyr/pipH+)): 11.3 ± 0.12 | pKa ([1]; read-out: pKa (NqH+)): 2.09 ± 0.05 | pKa ([1]; read-out: pKa (OH)): 7.42 ± 0.03 | fraction of HL ([1]; pH 7.4, based on the pKa values): 42% | logD at 4 h ([2]; n-octanol/buffered aqueous solution, n-octanol/H2O, read-out: log D7.4): 2.54 | IC50 (MES-SA/B1; Homo sapiens, MES-SA/B1, 144 h): 380 nM | SR (Colo205 / Colo320) (Colo320): 2.4 | MIC ([3]; Escherichia coli, ATCC25922): 50 µM (≈ 13.8 µg/mL) | MIC ([4]; Staphylococcus aureus, ATCC25923): 50 µM (≈ 13.8 µg/mL) | MIC ([5]; Staphylococcus aureus): 25 µM (≈ 6.92 µg/mL) | IC50 (MES-SA/Dx5 [6]; PrestoBlue): 290 ± 50 nM | SR (MES-SA / MES-SA/Dx5) (MES-SA/Dx5 [6]; + 1 µM TQ): 1.31 | SR (MES-SA / MES-SA/Dx5) (MES-SA/Dx5 [6]): 8.71 | Kd [7]: 7940 nM | Kd [8]: 3980 nM | IC50 (MES-SA; Homo sapiens, MES-SA): 1090 nM | IC50 (MES-SA/Dx5 [9]; Homo sapiens, MES-SA/Dx5, 144 h): 90 nM

[RhCp*(HQCl-Pip)Cl]Cl [(3)]
logD7.4 ([2]; c(Cl–) = 4 mM): +0.34 ± 0.01 | logD7.4 ([2]; c(Cl–) = 24 mM): +0.58 ± 0.01 | logD7.4 ([2]; c(Cl–) = 100 mM): +0.60 ± 0.01 | SR B1 = IC50 (MES-SA)/IC50 (MES-SA/B1) (MES-SA/B1): 2.9 | IC50 (MES-SA/B1; 144 h): 740 nM | MIC [3]: 50 µM | MIC [4]: 50 µM | MIC [5]: 25 µM | logK’(quenching) ([7]; 1 μM HSA, λEX = 295 nm (Trp-214), pH 7.4 (PBS’), […], 24 h): 5.1 ± 0.1 | logK’(DG) ([8]; cHSA = cDG = 1 μM, λEX = 335 nm (DG), pH 7.4 (PBS’), […], 24 h): 5.0 ± 0.1 | IC50 (MES-SA; double coculture with MES-SA/Dx5, without TQ): 2040 nM | SR = IC50 (MES-SA)/IC50 (MES-SA/Dx5) (MES-SA/Dx5 [9]; + 0.4 μM tariquidar (TQ)): 1.3 | SR = IC50 (MES-SA)/IC50 (MES-SA/Dx5) (MES-SA/Dx5 [9]; without TQ): 9.1 | IC50 (MES-SA/Dx5 [9]; double coculture with MES-SA, 144 h, without TQ): 220 nM

Source: PMC11653257, “Organometallic Half-Sandwich Complexes of 8-Hydroxyquinoline-Derived Mannich Bases with Enhanced Solubility: Targeting Multidrug Resistant Cancer” (Inorganic Chemistry, 2024)
